Test results reported in US7115382B1, “Method for detecting IGFBP-4 protease without detecting IGFBP-4 protease/proMBP Complex” (Mayo Foundation for Medical Education and Research, priority 1999, dated 2006).

Tested on: HEK 293 cells
Assay: Flow cytometry of PAPP-A binding to the cell surface
Assay type: cell-based, human
Details: HEK 293 cells transfected with rPAPP-A cDNA, mAb 234-2 detection
Experimental: Flow cytometry was used to assess the binding of PAPP-A to the cell surface of HEK 293 cells either transfected with empty expression vector or with the vector containing cDNA encoding rPAPP-A (see Example 4 for a description of vectors and transfections). […] Fifty μl of the cell suspension was incubated with primary antibody (final concentration 5 μg/ml purified PAPP-A specific mAb 234-2) on ice for 30 min. Cells were then washed three times with L15/FBS and incubated with fluorescein isothiocyanate-conjugated goat anti-mouse IgG (heavy and light chain, Zymed Laboratories, San Francisco, Calif.) for 30 min on ice. Cells were fixed in buffer with 1% formaldehyde before flow cytometry on a Becton Dickinson instrument. […] Similar results were obtained with other PAPP-A monoclonal antibodies (234-3, 234-4, 234-5, and 234-7).

Substance: PAPP-A: pregnancy-associated plasma protein-A, the IGF-dependent IGFBP-4 protease
- Binding to the cell surface: binds to the surface of HEK 293 cells
